{"source": "patent US9086390B2", "about": "“Dabigatran etexilate and related substances, processes and compositions, and use of the substances as reference standards and markers” (Medichem, S.A., priority 2011, dated 2015)", "note": "Counter-ions that a name gives are not always drawn.", "data": [{"assay": "Accelerated stability study of dabigatran etexilate mesylate (impurity contents by HPLC method 1)", "type": "physicochemical", "details": "content of the named impurity in dabigatran etexilate mesylate of Example 6 after storage in a double polyethylene bag at 40° C. and 75% relative humidity for 3 months; HPLC method 1; area % with respect to dabigatran etexilate", "description": "(§1) The chromatographic separation was carried out in a Kromasil 100-5C18, 5 μm, 4.6×250 mm column at 25° C. The mobile phase was prepared by filtering and degassing an acetonitrile/buffer solution (45:55) v/v mixture. The buffer solution was obtained by preparing a 50 mM formic acid solution in water and adjusting the pH to 3.8 with ammonium hydroxide. The chromatograph was equipped with a 254 nm detector and the flow rate was 1.0 mL per minute. 20 μL of the test samples were injected. The samples were prepared by dissolving the appropriate amount of sample in mobile phase, to obtain a concentration of about 1.0 mg/mL. The chromatogram was run for at least 30 min. […] Impurity contents are expressed in area % with respect to dabigatran etexilate.", "units": {"Compound/Impurity contents (area %) Example 7": "area %"}, "values": [{"smiles": "Cn1c(CNc2ccc(C(=N)N)cc2)nc2cc(C(=O)N(CCC(=O)O)c3ccccn3)ccc21", "note": "[Compound (C1), 3-{[(2-{[(4-{carbamimidoyl}phenyl)amino]methyl}-1-methyl-1H-benzimidazol-5-yl)carbonyl](pyridin-2-yl)amino}propanoic acid, reference compound]", "Compound/Impurity contents (area %) Example 7": 1.64}, {"smiles": "CCCCCCOC(=O)/N=C(/N)c1ccc(NCc2nc3cc(C(=O)N(CCC(=O)OC)c4ccccn4)ccc3n2C)cc1", "note": "[Compound (C3), methyl 3-{[(2-{[(4-{[(hexyloxy)carbonyl]carbamimidoyl}phenyl)amino]methyl}-1-methyl-1H-benzimidazol-5-yl)carbonyl](pyridin-2-yl)amino}propanoate]", "Compound/Impurity contents (area %) Example 7": 0.32}, {"smiles": "CCOC(=O)c1ccc2c(c1)nc(CNc1ccc(C(=N)N)cc1)n2C", "note": "[Compound (A1), ethyl 2-{[(4-{carbamimidoyl}phenyl)amino]methyl}-1-methyl-1H-benzimidazol-5-carboxylate]", "Compound/Impurity contents (area %) Example 7": 0.38}, {"smiles": "CCCCCCOC(=O)/N=C(/N)c1ccc(NCc2nc3cc(C(=O)OCC)ccc3n2C)cc1", "note": "[Compound (A2), ethyl 2-{[(4-{[(hexyloxy)carbonyl]carbamimidoyl}phenyl)amino]methyl}-1-methyl-1H-benzimidazol-5-carboxylate]", "Compound/Impurity contents (area %) Example 7": 0.42}, {"smiles": "CCCCCCOC(=O)/N=C(/N)c1ccc(NCc2nc3cc(C(=O)N(CCC(N)=O)c4ccccn4)ccc3n2C)cc1", "note": "[Compound (B4), 3-{[(2-{[(4-{[(hexyloxy)carbonyl]carbamimidoyl}phenyl)amino]methyl}-1-methyl-1H-benzimidazol-5-yl)carbonyl](pyridin-2-yl)amino}propanamide]", "Compound/Impurity contents (area %) Example 7": 0.71}, {"smiles": "CCCCCCOC(=O)/N=C(/N)c1ccc(NCc2nc3cc(C(=O)N(CCC(=O)O)c4ccccn4)ccc3n2C)cc1", "note": "[Compound (C2), 3-{[(2-{[(4-{[(hexyloxy)carbonyl]carbamimidoyl}phenyl)amino]methyl}-1-methyl-1H-benzimidazol-5-yl)carbonyl](pyridin-2-yl)amino}propanoic acid]", "Compound/Impurity contents (area %) Example 7": 1.57}, {"smiles": "CCCCCCOC(=O)NC(=O)c1ccc(NCc2nc3cc(C(=O)N(CCC(=O)O)c4ccccn4)ccc3n2C)cc1", "note": "[Compound (B1), 3-{[(2-{[(4-{[({hexyloxy}carbonyl)amino]carbonyl}phenyl)amino]methyl}-1-methyl-1H-benzimidazol-5-yl)carbonyl](pyridin-2-yl)amino}propanoic acid]", "Compound/Impurity contents (area %) Example 7": 3.8}, {"smiles": "CCCCCCOC(=O)/N=C(/N)c1ccc(N)cc1", "note": "[Compound (D), 4-{[(hexyloxy)carbonyl]carbamimidoyl}aniline]", "Compound/Impurity contents (area %) Example 7": 0.18}, {"smiles": "CCCCCCOC(=O)NC(=O)c1ccc(NCc2nc3cc(C(=O)N(CCC(=O)OC)c4ccccn4)ccc3n2C)cc1", "note": "[Compound (B2), methyl 3-{[(2-{[(4-{[({hexyloxy}carbonyl)amino]carbonyl}phenyl)amino]methyl}-1-methyl-1H-benzimidazol-5-yl)carbonyl](pyridin-2-yl)amino}propanoate]", "Compound/Impurity contents (area %) Example 7": 0.25}, {"smiles": "CCCCCCOC(=O)NC(=O)c1ccc(NCc2nc3cc(C(=O)N(CCC(=O)OCC)c4ccccn4)ccc3n2C)cc1", "note": "[Compound (B3), ethyl 3-{[(2-{[(4-{[({hexyloxy}carbonyl)amino]carbonyl}phenyl)amino]methyl}-1-methyl-1H-benzimidazol-5-yl)carbonyl](pyridin-2-yl)amino}propanoate]", "Compound/Impurity contents (area %) Example 7": 7.62}]}, {"assay": "Accelerated stability study of dabigatran etexilate mesylate (impurity contents by HPLC method 1)", "type": "physicochemical", "details": "on storage, 40° C. and 75% relative humidity, moisture", "description": "as §1", "values": [{"smiles": "CCCCCCOC(=O)NC(=N)c1ccc(NCc2nc3cc(C(=O)N(CCC(=O)OCC)c4ccccn4)ccc3n2C)cc1", "note": "[dabigatran etexilate mesylate, reference compound]", "main hydrolysis product on storage": "a compound of formula (B), especially compound (B3)"}]}, {"assay": "not given", "details": "cited from earlier work", "values": [{"smiles": "CCCCCCOC(=O)NC(=N)c1ccc(NCc2nc3cc(C(=O)N(CCC(=O)OCC)c4ccccn4)ccc3n2C)cc1", "note": "[dabigatran etexilate mesylate, reference compound]", "main hydrolysis product in vivo": "a compound of formula (D1), namely dabigatran"}]}]}
